# Source: paper PMC7486443, “Generation of Phenothiazine with Potent Anti-TLK1 Activity for Prostate Cancer Therapy” (iScience, 2020)
# What was measured:
# Assay in all cases: biochemical
# Set-up in all cases: DiscoverX KINOMEscan scanMAX competition binding panel, single concentration, percent of control; remaining binding: dose or concentration left out as unconfirmed
# Settings in all cases: KINOMEscan binding, percent of control; read-out: Table S4_SCANMAX REPORT - related to Fig. 1 / Percent Control
# [1] = biological target: BMX (Homo sapiens, UniProt P51813)
# [2] = biological target: T1, BRK (Homo sapiens, UniProt Q13882)
# T1 construct: gene PTK6
# [3] = biological target: CIT (Homo sapiens, UniProt O14578)
# [4] = biological target: T2, DLK (Homo sapiens, UniProt Q12852)
# T2 construct: gene MAP3K12
# [5] = biological target: EPHA3 (Homo sapiens, UniProt P29320)
# [6] = biological target: EPHB4 (Homo sapiens, UniProt P54760)
# [7] = biological target: KIT-autoinhibited (Homo sapiens, UniProt P10721)
# [8] = biological target: LATS1 (Homo sapiens, UniProt O95835)
# [9] = biological target: LYN (Homo sapiens, UniProt P07948)
# [10] = biological target: MARK4 (Homo sapiens, UniProt Q96L34)
# [11] = biological target: T3, MLK3 (Homo sapiens, UniProt Q16584)
# T3 construct: gene MAP3K11
# [12] = biological target: PIK3CA (Homo sapiens, UniProt P42336)
# [13] = biological target: PIP5K1C (Homo sapiens, UniProt O60331)
# [14] = biological target: PRKCE (Homo sapiens, UniProt Q02156)
# [15] = biological target: PRKCI (Homo sapiens, UniProt P41743)
# [16] = biological target: PRKG2 (Homo sapiens, UniProt Q13237)
# [17] = biological target: SRC (Homo sapiens, UniProt P12931)
# [18] = biological target: SRMS (Homo sapiens, UniProt Q9H3Y6)
# [19] = biological target: T4, TAK1 (Homo sapiens, UniProt O43318)
# T4 construct: gene MAP3K7
# T4 sequence (O43318 whole entry): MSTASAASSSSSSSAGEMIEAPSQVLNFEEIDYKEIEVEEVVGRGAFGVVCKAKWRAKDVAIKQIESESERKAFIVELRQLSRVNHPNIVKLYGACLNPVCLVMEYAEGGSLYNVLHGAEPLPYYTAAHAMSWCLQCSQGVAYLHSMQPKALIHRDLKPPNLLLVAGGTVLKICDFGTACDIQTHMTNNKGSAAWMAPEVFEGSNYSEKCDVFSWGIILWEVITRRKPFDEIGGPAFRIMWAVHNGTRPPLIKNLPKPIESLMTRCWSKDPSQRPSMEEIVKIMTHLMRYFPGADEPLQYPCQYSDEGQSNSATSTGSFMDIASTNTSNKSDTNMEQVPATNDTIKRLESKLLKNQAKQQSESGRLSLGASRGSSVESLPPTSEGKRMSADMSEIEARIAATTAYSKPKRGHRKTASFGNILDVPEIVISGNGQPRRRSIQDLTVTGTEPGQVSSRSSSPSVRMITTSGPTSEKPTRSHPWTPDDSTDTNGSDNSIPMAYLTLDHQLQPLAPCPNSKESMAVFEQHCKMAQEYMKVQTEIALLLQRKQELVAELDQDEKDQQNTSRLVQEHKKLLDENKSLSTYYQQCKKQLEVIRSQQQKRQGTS
# Sequence of BMX (P51813 whole entry): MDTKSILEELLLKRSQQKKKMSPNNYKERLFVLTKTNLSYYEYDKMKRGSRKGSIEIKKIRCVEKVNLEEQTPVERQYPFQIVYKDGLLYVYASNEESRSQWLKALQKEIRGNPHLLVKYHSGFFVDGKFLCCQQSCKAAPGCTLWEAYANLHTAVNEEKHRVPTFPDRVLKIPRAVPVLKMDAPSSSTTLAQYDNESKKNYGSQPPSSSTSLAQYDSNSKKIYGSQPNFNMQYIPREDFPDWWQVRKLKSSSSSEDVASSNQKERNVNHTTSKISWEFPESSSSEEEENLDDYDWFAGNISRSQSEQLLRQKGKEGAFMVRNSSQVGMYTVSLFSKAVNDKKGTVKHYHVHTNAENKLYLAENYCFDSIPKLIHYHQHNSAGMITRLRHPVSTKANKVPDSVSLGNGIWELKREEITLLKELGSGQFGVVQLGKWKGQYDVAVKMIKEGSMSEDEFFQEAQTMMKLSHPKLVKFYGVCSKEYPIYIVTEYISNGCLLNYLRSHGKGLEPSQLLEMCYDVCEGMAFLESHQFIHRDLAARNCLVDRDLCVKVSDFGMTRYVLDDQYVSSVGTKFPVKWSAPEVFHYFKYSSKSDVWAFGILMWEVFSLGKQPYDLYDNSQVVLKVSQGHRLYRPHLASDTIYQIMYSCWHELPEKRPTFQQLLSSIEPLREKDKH
# Sequence of EPHB4 (P54760 whole entry): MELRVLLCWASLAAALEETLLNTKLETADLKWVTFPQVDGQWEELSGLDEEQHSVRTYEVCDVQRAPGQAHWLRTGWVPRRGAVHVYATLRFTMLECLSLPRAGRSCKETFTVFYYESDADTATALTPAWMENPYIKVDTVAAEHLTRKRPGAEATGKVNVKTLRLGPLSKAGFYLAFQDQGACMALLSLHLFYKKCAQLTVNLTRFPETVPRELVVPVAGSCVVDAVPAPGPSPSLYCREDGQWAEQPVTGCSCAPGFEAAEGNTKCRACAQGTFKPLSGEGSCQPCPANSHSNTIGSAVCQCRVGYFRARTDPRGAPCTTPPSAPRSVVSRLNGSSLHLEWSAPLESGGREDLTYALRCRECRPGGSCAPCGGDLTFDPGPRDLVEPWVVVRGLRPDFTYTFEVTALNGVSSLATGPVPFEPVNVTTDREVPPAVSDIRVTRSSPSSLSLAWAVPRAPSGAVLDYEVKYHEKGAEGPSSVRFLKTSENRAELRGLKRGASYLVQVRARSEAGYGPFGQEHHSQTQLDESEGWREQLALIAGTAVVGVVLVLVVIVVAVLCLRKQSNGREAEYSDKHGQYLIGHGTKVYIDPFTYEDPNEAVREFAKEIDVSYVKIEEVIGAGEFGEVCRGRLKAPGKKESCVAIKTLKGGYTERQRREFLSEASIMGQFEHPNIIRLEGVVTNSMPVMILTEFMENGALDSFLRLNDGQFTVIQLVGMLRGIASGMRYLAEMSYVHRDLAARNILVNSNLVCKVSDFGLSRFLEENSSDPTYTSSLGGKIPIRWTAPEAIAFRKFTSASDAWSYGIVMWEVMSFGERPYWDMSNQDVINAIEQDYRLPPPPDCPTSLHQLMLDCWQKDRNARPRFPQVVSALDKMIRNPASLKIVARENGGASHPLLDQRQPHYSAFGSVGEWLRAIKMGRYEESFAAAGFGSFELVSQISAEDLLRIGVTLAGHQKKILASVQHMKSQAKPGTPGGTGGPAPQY
# Sequence of LATS1 (O95835 whole entry): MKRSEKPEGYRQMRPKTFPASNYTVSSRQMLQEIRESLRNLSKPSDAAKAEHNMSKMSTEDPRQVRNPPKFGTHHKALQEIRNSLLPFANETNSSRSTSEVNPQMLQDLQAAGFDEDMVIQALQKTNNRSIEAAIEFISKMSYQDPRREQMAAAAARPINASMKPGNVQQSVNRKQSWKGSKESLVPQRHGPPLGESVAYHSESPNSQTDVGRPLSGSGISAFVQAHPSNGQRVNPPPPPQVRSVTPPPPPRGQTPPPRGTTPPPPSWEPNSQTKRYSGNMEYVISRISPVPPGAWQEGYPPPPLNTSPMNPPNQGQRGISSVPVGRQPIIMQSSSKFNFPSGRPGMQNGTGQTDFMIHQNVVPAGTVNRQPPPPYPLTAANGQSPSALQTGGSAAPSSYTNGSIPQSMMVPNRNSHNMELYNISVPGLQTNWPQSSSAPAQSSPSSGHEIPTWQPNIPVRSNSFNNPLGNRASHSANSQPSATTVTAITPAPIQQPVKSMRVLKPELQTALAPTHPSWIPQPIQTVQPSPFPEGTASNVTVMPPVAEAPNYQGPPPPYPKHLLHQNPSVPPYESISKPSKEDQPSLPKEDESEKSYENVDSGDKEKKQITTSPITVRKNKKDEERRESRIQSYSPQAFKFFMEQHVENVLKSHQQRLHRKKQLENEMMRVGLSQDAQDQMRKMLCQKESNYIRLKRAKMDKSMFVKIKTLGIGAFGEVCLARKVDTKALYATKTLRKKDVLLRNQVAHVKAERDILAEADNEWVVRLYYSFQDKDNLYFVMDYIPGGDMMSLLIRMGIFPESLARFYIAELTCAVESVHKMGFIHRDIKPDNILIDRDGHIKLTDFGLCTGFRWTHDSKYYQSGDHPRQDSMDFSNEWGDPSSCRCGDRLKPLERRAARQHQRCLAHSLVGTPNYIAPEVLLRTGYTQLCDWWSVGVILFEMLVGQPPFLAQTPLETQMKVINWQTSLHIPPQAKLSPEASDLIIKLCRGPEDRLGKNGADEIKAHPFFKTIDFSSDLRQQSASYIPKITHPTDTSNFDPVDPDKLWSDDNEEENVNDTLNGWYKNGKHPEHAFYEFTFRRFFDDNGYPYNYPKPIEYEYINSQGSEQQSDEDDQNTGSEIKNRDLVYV
# Sequence of KIT-autoinhibited (P10721 whole entry): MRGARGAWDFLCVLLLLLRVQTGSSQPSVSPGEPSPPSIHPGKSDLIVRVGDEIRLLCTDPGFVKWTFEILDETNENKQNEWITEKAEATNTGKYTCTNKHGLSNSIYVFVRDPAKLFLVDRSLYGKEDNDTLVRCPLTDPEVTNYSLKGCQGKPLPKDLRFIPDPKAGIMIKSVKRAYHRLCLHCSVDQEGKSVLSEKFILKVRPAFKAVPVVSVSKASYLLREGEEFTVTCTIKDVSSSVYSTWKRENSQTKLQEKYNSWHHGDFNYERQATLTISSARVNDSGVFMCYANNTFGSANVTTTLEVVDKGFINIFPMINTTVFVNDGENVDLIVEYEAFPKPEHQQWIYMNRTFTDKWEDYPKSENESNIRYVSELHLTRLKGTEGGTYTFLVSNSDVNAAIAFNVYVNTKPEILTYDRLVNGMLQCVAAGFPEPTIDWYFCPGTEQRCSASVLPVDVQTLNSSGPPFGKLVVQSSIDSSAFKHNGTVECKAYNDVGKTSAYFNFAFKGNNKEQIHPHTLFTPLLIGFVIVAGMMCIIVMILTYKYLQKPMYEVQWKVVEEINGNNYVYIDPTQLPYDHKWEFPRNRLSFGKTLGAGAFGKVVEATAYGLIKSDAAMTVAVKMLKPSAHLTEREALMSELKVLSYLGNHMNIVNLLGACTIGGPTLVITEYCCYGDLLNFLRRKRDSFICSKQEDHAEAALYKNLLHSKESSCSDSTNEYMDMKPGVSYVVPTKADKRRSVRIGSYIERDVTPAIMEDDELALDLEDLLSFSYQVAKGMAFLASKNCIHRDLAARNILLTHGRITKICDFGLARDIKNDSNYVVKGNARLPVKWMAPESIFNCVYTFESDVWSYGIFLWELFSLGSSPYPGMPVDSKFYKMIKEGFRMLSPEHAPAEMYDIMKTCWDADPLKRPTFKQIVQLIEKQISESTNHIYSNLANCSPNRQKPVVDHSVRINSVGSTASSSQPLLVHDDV
# T1 sequence (Q13882 whole entry): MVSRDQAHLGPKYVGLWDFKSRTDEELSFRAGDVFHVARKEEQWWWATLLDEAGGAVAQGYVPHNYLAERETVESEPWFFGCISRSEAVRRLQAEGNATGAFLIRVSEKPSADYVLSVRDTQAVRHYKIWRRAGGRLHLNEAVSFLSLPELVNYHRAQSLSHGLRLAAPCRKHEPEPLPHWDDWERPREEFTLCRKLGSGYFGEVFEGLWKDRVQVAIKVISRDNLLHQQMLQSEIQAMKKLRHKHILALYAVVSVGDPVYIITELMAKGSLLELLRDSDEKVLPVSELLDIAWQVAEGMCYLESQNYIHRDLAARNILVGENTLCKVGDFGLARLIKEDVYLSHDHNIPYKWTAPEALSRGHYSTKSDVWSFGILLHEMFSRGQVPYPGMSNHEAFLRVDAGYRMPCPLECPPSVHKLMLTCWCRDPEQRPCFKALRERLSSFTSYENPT
smiles,measurement,setting,value
c1ccc2c(c1)Sc1ccccc1N2CCN1CCOCC1 [J54],remaining binding,[1],100%
same,remaining binding,[2],100%
same,remaining binding,[3],88%
same,remaining binding,[4],100%
same,remaining binding,[5],99%
same,remaining binding,[6],100%
same,remaining binding,[7],100%
same,remaining binding,[8],81%
same,remaining binding,[9],98%
same,remaining binding,[10],100%
same,remaining binding,[11],100%
same,remaining binding,[12],94%
same,remaining binding,[13],100%
same,remaining binding,[14],100%
same,remaining binding,[15],98%
same,remaining binding,[16],99%
same,remaining binding,[17],96%
same,remaining binding,[18],100%
same,remaining binding,[19],97%
